Source: patent publication US6855513B1 (priority 1999, dated 2005)

Assays:
Format in all cases: cell-based, Pseudomonas aeruginosa
[1] = system: qsc104 (Polyamine binding protein); assay: Acyl-HSL induction of β-galactosidase in qsc104 mutant; conditions: qsc104, Class I; 3OC12-HSL 2 μM, C4-HSL 5 μM
[2] = system: qsc105 (FAD-binding protein); assay: Acyl-HSL induction of β-galactosidase in qsc105 mutant; conditions: qsc105, Class I; 3OC12-HSL 2 μM, C4-HSL 5 μM
qsc106A&B = assay: Acyl-HSL induction of β-galactosidase in qsc106A&B mutants; conditions: Class I, 3OC12-HSL 2 μM, C4-HSL 5 μM
qsc107 = assay: Acyl-HSL induction of β-galactosidase in qsc107 mutant; conditions: qsc107, Class I; 3OC12-HSL 2 μM, C4-HSL 5 μM
qsc108 (ORF 5) = assay: Acyl-HSL induction of β-galactosidase in qsc108 mutant; conditions: qsc108, Class II; 3OC12-HSL 2 μM, C4-HSL 5 μM
[3] = system: qsc109 (Bacitracin synthetase 3); assay: Acyl-HSL induction of β-galactosidase in qsc109 mutant; conditions: qsc109, Class II; 3OC12-HSL 2 μM, C4-HSL 5 μM
[4] = system: qsc110A&B (Pyoverdine synthetase D); assay: Acyl-HSL induction of β-galactosidase in qsc110A&B mutants; conditions: Class II, 3OC12-HSL 2 μM, C4-HSL 5 μM
[5] = system: qsc111 (Pyoverdine synthetase D); assay: Acyl-HSL induction of β-galactosidase in qsc111 mutant; conditions: qsc111, Class II; 3OC12-HSL 2 μM, C4-HSL 5 μM
[6] = system: qsc112A&B (Aculeacin A acylase); assay: Acyl-HSL induction of β-galactosidase in qsc112A&B mutants; conditions: Class II, 3OC12-HSL 2 μM, C4-HSL 5 μM
qsc114 = assay: Acyl-HSL induction of β-galactosidase in qsc114 mutant; conditions: qsc114, Class II; 3OC12-HSL 2 μM, C4-HSL 5 μM
qsc115 = assay: Acyl-HSL induction of β-galactosidase in qsc115 mutant; conditions: qsc115, Class II; 3OC12-HSL 2 μM, C4-HSL 5 μM
qsc118 (RhlI) = assay: Acyl-HSL induction of β-galactosidase in qsc118 mutant; conditions: qsc118, Class III; 3OC12-HSL 2 μM, C4-HSL 5 μM
qsc119 (RhlB) = assay: Acyl-HSL induction of β-galactosidase in qsc119 mutant; conditions: qsc119, Class III; 3OC12-HSL 2 μM, C4-HSL 5 μM
[7] = system: qsc120 (Chloramphenicol resistance); assay: Acyl-HSL induction of β-galactosidase in qsc120 mutant; conditions: qsc120, Class III; 3OC12-HSL 2 μM, C4-HSL 5 μM
[8] = system: qsc123 (9-Cis retinol dehydrogenase); assay: Acyl-HSL induction of β-galactosidase in qsc123 mutant; conditions: qsc123, Class III; 3OC12-HSL 2 μM, C4-HSL 5 μM
[9] = system: qsc126 (Pristanimycin I synthase 3 & 4); assay: Acyl-HSL induction of β-galactosidase in qsc126 mutant; conditions: qsc126, Class III; 3OC12-HSL 2 μM, C4-HSL 5 μM
qsc127 = assay: Acyl-HSL induction of β-galactosidase in qsc127 mutant; conditions: qsc127, Class III; 3OC12-HSL 2 μM, C4-HSL 5 μM
[10] = system: qsc128 (Hydrogen cyanide synthase HcnB); conditions: qsc128, Class III; 3OC12-HSL 2 μM, C4-HSL 5 μM
[11] = system: qsc129A&B (Cellulose binding protein p40); assay: Acyl-HSL induction of β-galactosidase in qsc129A&B mutants; conditions: Class III, 3OC12-HSL 2 μM, C4-HSL 5 μM
qsc131 (PhzC) = assay: Acyl-HSL induction of β-galactosidase in qsc131 mutant; conditions: qsc131, Class III; 3OC12-HSL 2 μM, C4-HSL 5 μM
[12] = system: qsc132A&B (Unknown (B. pertusis)); assay: Acyl-HSL induction of β-galactosidase in qsc132A&B mutants; conditions: Class IV, 3OC12-HSL 2 μM, C4-HSL 5 μM
qsc133A&B (AcrB) = assay: Acyl-HSL induction of β-galactosidase in qsc133A&B mutants; conditions: Class IV, 3OC12-HSL 2 μM, C4-HSL 5 μM
[13] = system: qsc134 (Saframycin Mx1 synthetase A); assay: Acyl-HSL induction of β-galactosidase in qsc134 mutant; conditions: qsc134, Class IV; 3OC12-HSL 2 μM, C4-HSL 5 μM
[14] = system: qsc135 (Cytochrome C precursor); assay: Acyl-HSL induction of β-galactosidase in qsc135 mutant; conditions: qsc135, Class IV; 3OC12-HSL 2 μM, C4-HSL 5 μM
qtc136 = assay: Acyl-HSL induction of β-galactosidase in qtc136 mutant; conditions: qtc136, Class IV; 3OC12-HSL 2 μM, C4-HSL 5 μM
qsc138 = assay: Acyl-HSL induction of β-galactosidase in qsc138 mutant; conditions: qsc138, Class IV; 3OC12-HSL 2 μM, C4-HSL 5 μM

Compound | Signal response (β-galactosidase activity with signal(s) divided by activity without added signals), maximum [1] | Signal response (β-galactosidase activity with signal(s) divided by activity without added signals), maximum [2] | Signal response (β-galactosidase activity with signal(s) divided by activity without added signals), maximum (qsc106A&B) | Signal response (β-galactosidase activity with signal(s) divided by activity without added signals), maximum (qsc107) | Signal response (β-galactosidase activity with signal(s) divided by activity without added signals), maximum (qsc108 (ORF 5)) | Signal response (β-galactosidase activity with signal(s) divided by activity without added signals), maximum [3] | Signal response (β-galactosidase activity with signal(s) divided by activity without added signals), maximum [4] | Signal response (β-galactosidase activity with signal(s) divided by activity without added signals), maximum [5] | Signal response (β-galactosidase activity with signal(s) divided by activity without added signals), maximum [6] | Signal response (β-galactosidase activity with signal(s) divided by activity without added signals), maximum (qsc114) | Signal response (β-galactosidase activity with signal(s) divided by activity without added signals), maximum (qsc115) | Signal response (β-galactosidase activity with signal(s) divided by activity without added signals), maximum (qsc118 (RhlI)) | Signal response (β-galactosidase activity with signal(s) divided by activity without added signals), maximum (qsc119 (RhlB)) | Signal response (β-galactosidase activity with signal(s) divided by activity without added signals), maximum [7] | Signal response (β-galactosidase activity with signal(s) divided by activity without added signals), maximum [8] | Signal response (β-galactosidase activity with signal(s) divided by activity without added signals), maximum [9] | Signal response (β-galactosidase activity with signal(s) divided by activity without added signals), maximum (qsc127) | Signal response (β-galactosidase activity with signal(s) divided by activity without added signals), maximum [10] | Signal response (β-galactosidase activity with signal(s) divided by activity without added signals), maximum [11] | Signal response (β-galactosidase activity with signal(s) divided by activity without added signals), maximum (qsc131 (PhzC)) | also measured
CCCCCCCCCC(=O)CC(=O)N[C@H]1CCOC1=O [3OC12-HSL, N-(3-oxododecanoyl) homoserine lactone] | 7 | 40 | 9 | 44 | 13 | 13 | 10 | 11 | 15 | 9 | 4 | 38 | 9 | 3 | 14 | 3 | 5 | 19 | 15 | 50 | Signal response (β-galactosidase activity with signal(s) divided by activity without added signals), maximum [12]: 1; Signal response (β-galactosidase activity with signal(s) divided by activity without added signals), maximum (qsc133A&B (AcrB)): 1; Signal response (β-galactosidase activity with signal(s) divided by activity without added signals), maximum [13]: 6; Signal response (β-galactosidase activity with signal(s) divided by activity without added signals), maximum [14]: 3; Signal response (β-galactosidase activity with signal(s) divided by activity without added signals), maximum (qtc136): 7; Signal response (β-galactosidase activity with signal(s) divided by activity without added signals), maximum (qsc138): 3
CCCC(=O)N[C@H]1CCOC1=O [C4-HSL, butanoyl-HSL] | 2 | 1 | 1 | 2 | 1 | 1 | 1 | 1 | 1 | 1 | 1 | 14 | 7 | 7 | 28 | 5 | 2 | 12 | 1 | 168 | Signal response (β-galactosidase activity with signal(s) divided by activity without added signals), maximum [12]: 1; Signal response (β-galactosidase activity with signal(s) divided by activity without added signals), maximum (qsc133A&B (AcrB)): 1; Signal response (β-galactosidase activity with signal(s) divided by activity without added signals), maximum [13]: 1; Signal response (β-galactosidase activity with signal(s) divided by activity without added signals), maximum [14]: 1; Signal response (β-galactosidase activity with signal(s) divided by activity without added signals), maximum (qtc136): 3; Signal response (β-galactosidase activity with signal(s) divided by activity without added signals), maximum (qsc138): 5
